Test results taken from US8329712B2, “Heterocyclic antiviral compounds” (Roche Palo Alto LLC, priority 2010, dated 2012).

Key:
[1] = target: T1, HCV polymerase (NS5B570n-Con1) (Hepatitis C virus genotype 1b, UniProt Q9WMX2); assay: HCV NS5B RNA polymerase activity assay (incorporation of radiolabeled UTP); type: biochemical, HCV Con1 strain
T1 construct: contains a 21 amino acid deletion at the C-terminus relative to the full-length HCV polymerase; 6-histidine (N); made in house; host or cells: E. coli strain BL21(DE) pLysS, plasmid pET 17b
Protocol: The enzymatic activity of HCV polymerase (NS5B570n-Con1) was measured as the incorporation of radiolabeled nucleotide monophosphates into acid insoluble RNA products. Unincorporated radiolabeled substrate was removed by filtration and scintillant was added to the washed and dried filter plate containing radiolabeled RNA product. The amount of RNA product generated by NS5B570-Con1 at the end of the reaction was directly proportional to the amount of light emitted by the scintillant.
The N-terminal 6-histidine tagged HCV polymerase, derived from HCV Con1 strain, genotype 1b (NS5B570n-Con1) contains a 21 amino acid deletion at the C-terminus relative to the full-length HCV polymerase and was purified from E. coli strain BL21(DE) pLysS. The construct, containing the coding sequence of HCV NS5B Con1 (GenBank accession number AJ242654) was inserted into the plasmid construct pET 17b, downstream of a T7 promoter expression cassette and transformed into E. coli. A single colony was grown overnight as a starter culture and later used inoculate 10 L of LB media supplemented with 100 μg/mL ampicillin at 37° C. Protein expression was induced by the addition of 0.25 mM isopropyl-β-D-thiogalactopyranoside (IPTG) when optical density at […] of the culture was between 0.6 and 0.8 and cells were harvested after 16 to 18 h at 30° C. NS5B570n-Con1 was purified to homogeneity using a three-step protocol including subsequent column chromatography on Ni-NTA, SP-Sepharose HP and Superdex 75 resins.
Each 50 μL enzymatic reaction contained 20 nM RNA template derived from the complementary sequence of the Internal Ribosome Entry Site (cIRES), 20 nM NS5B570n-Con1 enzyme, 0.5 μCi of tritiated UTP (Perkin Elmer catalog no. TRK-412; specific activity: 30 to 60 Ci/mmol; stock solution concentration from 7.5×10^−5 M to 20.6×10^−6 M), 1 μM each ATP, CTP, and GTP, 40 mM Tris-HCl pH 8.0, 40 mM NaCl, 4 mM DTT (dithiothreitol), 4 mM MgC12, and 5 μL of compound serial diluted in DMSO. Reaction mixtures were assembled in 96-well filter plates (cat #MADVNOB, Millipore Co.) and incubated for 2 h at 30° C. Reactions were stopped by addition of 10% final (v/v) trichloroacetic acid and incubated for 40 min at 4° C. Reactions were filtered, washed with 8 reaction volumes of 10% (v/v) trichloroacetic acetic acid, 4 reaction volumes of 70% (v/v) ethanol, air dried, and 25 μL of scintillant (Microscint 20, Perkin-Elmer) was added to each reaction well.
The amount of light emitted from the scintillant was converted to counts per minute (CPM) on a Topcount® plate reader (Perkin-Elmer, Energy Range: Low, Efficiency Mode Normal, Count Time: 1 min, Background Subtract: none, Cross talk reduction: Off).
Data was analyzed in Excel® (Microsoft) and ActivityBase® (Idbs®). The reaction in the absence of enzyme was used to determine the background signal, which was subtracted from the enzymatic reactions. Positive control reactions were performed in the absence of compound, from which the background corrected activity was set as 100% polymerase activity. All data was expressed as a percentage of the positive control. The compound concentration at which the enzyme-catalyzed rate of RNA synthesis was reduced by 50% (IC50) was calculated by fitting equation (i) to the data where“Y” […]

[2] = tested on: HCV replicon cells (2209-23), genotype 1b replicon in Huh7 cells; assay: HCV replicon assay (Renilla luciferase reporter); type: cell-based, HCV genotype 1b; details: Hepatitis C virus, Huh-7, 72 h; 2209-23 cells, three days incubation
in vitro = details: human
HCV = details: cited from earlier work

Row | Structure (SMILES) | melting point | IC50 [1] | further results
1 | CC(C)(C)c1nc(-c2ccc(O)[nH]c2=O)c2ccc(N3CC[C@H](CNS(C)(=O)=O)C3)cc2n1 [Compound I-2] | 205.8 to 207.9 °C | 3.5 nM | 
2 | CC(C)(C)c1nc(-n2ccc(=O)[nH]c2=O)c2ccc(-c3ccc(NS(C)(=O)=O)cc3)cc2n1 [Compound I-3, N-{4-[2-tert-Butyl-4-(2,4-dioxo-3,4-dihydro-2H-pyrimidin-1-yl)-quinazolin-7-yl]-phenyl}-methanesulfonamide] | 186 to 190 °C | < 0.1 nM | IC50 [2]: 17 nM; CC50 at 3 days (in vitro): 44 µM
3 | CC(C)(C)c1nc(-c2ccc(O)[nH]c2=O)c2ccc(-c3ccc(NS(C)(=O)=O)cc3)cc2n1 [Compound I-4, N-{4-[2-tert-Butyl-4-(6-hydroxy-2-oxo-1,2-dihydro-pyridin-3-yl)-quinazolin-7-yl]-phenyl}-methanesulfonamide] |  | 2.4 nM | 
4 | CC(C)(C)c1nc(-n2ccc(=O)[nH]c2=O)c2ncc(-c3ccc(NS(C)(=O)=O)cc3)cc2n1 [Compound I-5, N-{4-[2-tert-Butyl-4-(2,4-dioxo-3,4-dihydro-2H-pyrimidin-1-yl)-pyrido[3,2-d]pyrimidin-7-yl]-phenyl}-methanesulfonamide] |  | 5.5 nM | 
5 | Cc1ccc(-c2nc(C(C)(C)C)nc3cc(-c4ccc(NS(C)(=O)=O)cc4)cnc23)c(=O)[nH]1 [Compound I-6] |  | 9.7 nM | 
6 | NC(=O)c1ncn([C@@H]2O[C@H](CO)[C@@H](O)[C@H]2O)n1 [ribavirin, 1-((2R,3R,4S,5R)-3,4-Dihydroxy-5-hydroxymethyl-tetrahydro-furan-2-yl)-1H-[1,2,4]triazole-3-carboxylic acid amide] |  |  | patients with serum amino transferase levels reduced to normal (HCV; monotherapy): 40%; effect on serum levels of HCV-RNA (HCV; sole treatment / monotherapy): does not lower serum levels of HCV-RNA
